For orientation: EC50 means the concentration that produces a half-maximal response.

Read-outs that look alike come from different tables or passages of the source.

Data set [1] relates to HMC3 cells. Nature of the data set: Microglial phagocytosis/cell health high-content assay, HMC3 cells. The class given is cell-based. Conditions: 24-hr treatment.
Data set [2] can be described thus: Kinetic solubility in pH 7.4 phosphate buffer. The class given is physicochemical. The protocol: (§1) Physicochemical and ADME properties were determined using the following assays: microsomal stability intrinsic clearance (Clint) in mouse liver microsomal solution, MDCK permeability (Papp), protein binding (fu) in mouse plasma, and kinetic solubility in pH 7.4 phosphate buffer (Table 7).

The nature of data set [3]: Protein binding in mouse plasma. The format is in vitro ADME. The method, then:
as §1

Another data set relates to MDCK. The data set is described as follows: MDCK permeability. The format is in vitro ADME. As to conditions: estimate of intestinal absorption. The protocol:
as §1

The subject of a further data set is BV2 cells. Nature of the data set: Microglial phagocytosis/cell health high-content assay, BV2 cells. Conditions: 60 μM, 48 hrs, compared to control. The class given is cell-based. The method, then: (§2) The assay introduced here is a simplified cellular imaging assay without any fixation and washing steps, while producing multiparameter measurements with high capacity using a 384-well plate format. The assay procedures include plating cells on day 1, incubating cell plates overnight before treating cells on day 2, adding pHrodo™-myelin/membrane debris to cell plates on day 3, and 20 hr later, staining cell nuclei with Hoechst-33342 for 30 min before performing high-content imaging on day 4. Three selected parameters are measured from cells: 1) mean total fluorescence intensity per cell of pHrodo™-myelin/membrane debris in phagocytosis vesicles to quantify phagocytosis; 2) cell counts per well to quantify treatment effects on proliferation and cell death; and 3) average nuclear intensity to quantify treatment-induced nuclear changes such as in apoptosis. The assay has been used on HMC3 cells (an immortalized human microglial cell line), BV2 cells (an immortalized mouse microglial cell line), and primary microglia isolated from mouse brains. For initial assay attempts, we recommend using HMC3 cells available from the ATCC.
(§3) All collected raw data are normalized to the untreated control with following formula: % of control=100×(X−Min)/(Max−Min). Factors in the formula are: X is raw data from a treated well, Max is an average measurement from pHrodo™-myelin seeded but untreated wells, and Min is an average measurement from no pHrodo™-myelin untreated wells. Normalized data are used for curve fitting that is done with the variable slope (four parameters) using the Prism software.
(§4) To ensure that the measurements reflect the steady state of compound treatment effects and cell health, the assay was set with a total compound treatment time of 48 hr, including pHrodo™-myelin/membrane debris seeding performed 20-24 hr after compound addition. […] Among many available quantitative measurements from the image analysis, we selected three parameters for the assay:
(§5) 1) The mean total intensity of phagocytosis vesicles/cell—to measure phagocytosis. There are multiple parameters generated from the image analysis, including phagocytosis vesicle area, number, and various fluorescence intensity measurements. Comparing these parameters, the total fluorescence intensity of vesicles/cell is the most sensitive one and was chosen for quantifying phagocytosis.
(§6) 2) The total cell counts—to measure overall cell viability, which is affected by proliferation and cell death. We chose to take 4 images/well (with the 10× objective lens) that cover about 50% of the total area of a well in a 384-well plate to represent cell count of the well.
(§7) 3) The average nuclear intensity—to measure drug-induced apoptosis, with high signal indicating nuclear condescension (a sign of early apoptosis) and low signal indicating DNA degradation (a sign of later apoptosis, when activated caspases digest DNA).
(§8) A phenotypic high-content imaging assay with simultaneous measurements of phagocytosis, cell number, and nuclear intensity was used to assess both cellular pharmacology and cell health. Model cell lines BV2 (immortalized mouse microglia, a gift from Dr. Michelle Block's laboratory at IUSM) and HMC3 (immortalized human microglia, obtained from ATCC, CRL-3304) were used to provide adequate throughput. Cells were cultured in DMEM GlutaMax media (ThermoFisher) containing 10% FBS and Pen-Strep in a 37° C. 5% CO2 incubator, plated in Corning Falcon 384 well Optilux Black and clear bottom plates: 400 cells/45 μl/well (BV2 cells), 600 cells/45 μl/well (HMC3 cells) and 2000 cell/45 μl/well (primary cells), and treated with 10× serially diluted compounds (60 μM-3 nM) for 48 hrs at 37° C. […]

Data set [4] relates to HMC3 cells. Nature of the data set: Microglial phagocytosis/cell health high-content assay, HMC3 cells. The format is cell-based. As to conditions: 60 μM, 48 hrs, compared to control. The protocol:
as §2, §3, §4, §5, §6, §7, §8

The target in another data set is T1, PLCγ2-HiBit (Homo sapiens, UniProt P16885).
T1 construct: expressed in transfected cells; host or cells: HMC3 cells
T1 sequence (P16885 1-1265): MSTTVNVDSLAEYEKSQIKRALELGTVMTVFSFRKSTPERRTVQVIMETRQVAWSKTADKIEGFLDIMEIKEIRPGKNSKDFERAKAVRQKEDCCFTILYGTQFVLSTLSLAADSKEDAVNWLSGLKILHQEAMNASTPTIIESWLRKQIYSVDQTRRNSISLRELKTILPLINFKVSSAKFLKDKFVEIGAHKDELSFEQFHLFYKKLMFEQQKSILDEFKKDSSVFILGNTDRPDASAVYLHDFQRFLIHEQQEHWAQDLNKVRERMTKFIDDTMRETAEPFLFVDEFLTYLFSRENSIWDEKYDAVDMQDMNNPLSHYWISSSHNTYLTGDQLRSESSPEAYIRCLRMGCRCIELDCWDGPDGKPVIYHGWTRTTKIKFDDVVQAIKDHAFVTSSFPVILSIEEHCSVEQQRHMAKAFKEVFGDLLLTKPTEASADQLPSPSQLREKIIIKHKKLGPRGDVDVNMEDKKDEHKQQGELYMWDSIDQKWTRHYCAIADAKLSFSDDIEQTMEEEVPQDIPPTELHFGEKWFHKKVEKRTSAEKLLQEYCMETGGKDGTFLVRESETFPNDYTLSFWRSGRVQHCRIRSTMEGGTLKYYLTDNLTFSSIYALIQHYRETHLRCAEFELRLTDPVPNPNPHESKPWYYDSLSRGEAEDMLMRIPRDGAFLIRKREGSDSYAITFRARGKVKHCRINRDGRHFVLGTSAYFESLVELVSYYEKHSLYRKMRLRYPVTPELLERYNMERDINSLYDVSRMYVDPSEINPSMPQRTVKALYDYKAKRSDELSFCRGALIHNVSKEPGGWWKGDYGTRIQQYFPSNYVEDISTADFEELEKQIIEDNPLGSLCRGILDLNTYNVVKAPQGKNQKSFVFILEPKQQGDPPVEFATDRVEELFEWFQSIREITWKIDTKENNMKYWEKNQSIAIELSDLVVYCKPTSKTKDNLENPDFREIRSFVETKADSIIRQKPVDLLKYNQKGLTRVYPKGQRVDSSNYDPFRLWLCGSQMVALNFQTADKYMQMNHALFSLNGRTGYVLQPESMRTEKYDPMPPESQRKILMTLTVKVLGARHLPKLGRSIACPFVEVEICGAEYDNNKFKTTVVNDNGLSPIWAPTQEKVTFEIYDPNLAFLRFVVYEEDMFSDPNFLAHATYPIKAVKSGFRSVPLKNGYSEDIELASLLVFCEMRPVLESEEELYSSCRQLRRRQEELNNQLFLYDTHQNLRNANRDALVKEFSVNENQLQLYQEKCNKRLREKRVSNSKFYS
Nature of the data set: Cellular thermal shift assay (SplitLuc CETSA), PLCγ2-HiBit in HMC3 cells. The class given is cell-based. As to conditions: for PLCγ2-HiBit %, percent luminescence at highest dose compared to control (DMSO): 100 μM; for PLCy2-HiBit % @100: Table 1. An excerpt:
These compounds have been evaluated using a wide variety of assay classes namely target engagement utilizing cellular thermal shift assay (CETSA),^34 affinity selection mass spectrometry (ASMS),^35 biochemical activity employing the fluorogenic probe XY-69,^36 and cellular activity testing for phagocytosis. Cellular Thermal Shift Assays (CETSA) assess cellular target engagement by quantifying changes in protein thermal stability upon ligand binding to endogenous proteins in intact cells.^34 For SAR studies, a split Nano Luciferase (SplitLuc CETSA) version of the assay was utilized to provide sufficient throughput.^37,38 HMC3 cells were stably transfected with PLCγ2-HiBit to enable protein expression in a physiologically relevant cellular context. The thermal stability of this HiBit-labeled protein in intact cells was measured in the following two formats. In the initial screen, using 96-well plates, cells were treated with FBS analogs at a single concentration (100 μM) at 37° C. for 60 min and then exposed to a 3-minute isothermal heating step at 45.9° C. (experimentally determined Tm of PLCγ2-HiBit). Luminescence detection was then conducted with the Nano-Glo HiBit Lytic detection kit (Promega, Cat. N3040).^38 Compound treatment was performed in triplicate, and raw signals were normalized to the mean of the controls (in the same plate) as % of control. When the difference in compound-treated cells >control mean+3SD, the compound was considered positive and selected for further testing with dose-response CETSA. In the dose response CETSA, cells were treated with decreasing concentrations from 100 μM with 1:3 serial dilutions to generate an 8-point curve. An AC50 was calculated with the % of control data using a four-parameter logistic curve regression model, and the percent luminescence remaining at the highest concentration is also reported for the compounds when the difference from the DMSO control is greater than 3× the standard deviation (SD). Otherwise, an AC50 was not calculated.
Background: The HiBiT peptide binds its large partner to form an active luciferase.

Another data set addresses T2, His-PLCγ2 protein (Homo sapiens, UniProt P16885).
T2 sequence (P16885 1-1265): T1 sequence (P16885 1-1265)
Nature of the data set: Affinity selection mass spectrometry (ASMS). The class given is binding. Conditions: dose range 100-0.05 μM, PLCγ2 400 nM.

Another data set has as its system HiBit only. Nature of the data set: Cellular thermal shift assay (CETSA), HiBit only control. The class given is cell-based, human. Conditions: for HiBit only %, percent luminescence at highest dose with HiBit only compared to control (DMSO): 100 μM; for HiBit only % @100 μM: Table 1.
Data set [5] in a line: Microsomal stability intrinsic clearance. The class given is in vitro ADME. Conditions: mouse liver microsomes. The protocol: as §1

Procedure for His-PLCγ2 protein: Using a dose range of 100-0.05 μM in 384 well low-volume polypropylene microtiter plates, a solution of PLCγ2 (final concentration 400 nM) was transferred to biochip arrays functionalized with a Tris-Ni-NTA-presenting self-assembled monolayer to immobilize the His-tagged protein. The arrays were incubated for 90 min in a humidified chamber to prevent evaporation and allow for specific immobilization of the His-PLCγ2 protein, along with any bound small molecules. The arrays were purified by a rapid <3 second gentle wash step with deionized ultra-filtered water and dried with compressed air. ASMS was performed using the reflector positive mode on an Aβ Sciex TOF-TOF 5800 System (Aβ Sciex, Framingham, MA).

`C=C1[C@@H](C)[C@H]2[C@H](Cc3ccccc3)NC(=O)[C@]23[C@H](OC(C)=O)/C=C/[C@@](C)(O)C(=O)[C@@H](C)C/C=C/[C@H]3[C@@H]1O` [Cytochalasin D]: the IC50 with HMC3 cells [1] (read-out: cell count (inhibition of cell proliferation) IC50) amounted to 0.367 µM; in the data set on HMC3 cells [1] (read-out: inhibition of phagocytosis IC50), 0.138 µM. Further, the EC50 in the data set with HMC3 cells [1] (read-out: increase of nuclear intensity EC50) worked out at 0.488 µM.
`Cc1cc(C)c(S(=O)(=O)Nc2cccc(C#N)c2)c(C)c1` [Compound 3] yielded a Kinetic solubility in data set [2] of 81 to 100 µM. For the same compound, in data set [3], the “fu, fraction unbound” value came out at 0.0003. For the same compound, in the data set on MDCK, the “Papp, MDCK permeability” value is reported as 69.8 ×10−^6 cm/s. Besides, in the data set with BV2 cells, the “Ave. % Cell Count @ 60 uM BV2 cells” value is given as 85% and the “Ave. % Phagocytosis @ 60 uM BV2 cells” value is given as 113%. Moreover, in the data set on HMC3 cells [4], the “Ave. % Cell Count @ 60 uM HMC3 cells” value was 79% and the “Ave. % Phagocytosis @ 60 uM HMC3 cells” value is 111%. Also, at PLCγ2-HiBit, the “PLCγ2-HiBit %, percent luminescence at highest dose compared to control (DMSO)” value (from here on “PLCγ2-HiBit %, percent luminescence”) turned out to be 96% and the “PLCy2-HiBit % @100” value was 96%.
On to `Nc1ncnc2c1ncn2[C@@H]1O[C@H](COP(=O)(O)OP(=O)(O)OP(=O)(O)O)[C@@H](O)[C@H]1O` [ATP], for which, on His-PLCγ2 protein, the “target engagement, signal against background” value was “clear separation from background signal”.
In turn, `Cc1cc(C)c(S(=O)(=O)Nc2cccc(C(F)F)c2)c(C)c1` [Compound 7] had a Kinetic solubility in data set [2] of 41 to 60 µM. Besides, the “Papp, MDCK permeability” value in the data set with MDCK is reported as 37.4 ×10−^6 cm/s. For the same compound, in the data set with BV2 cells, the “Ave. % Cell Count @ 60 uM BV2 cells” value was determined as 2% and the “Ave. % Phagocytosis @ 60 uM BV2 cells” value was found to be 0%. In addition, in the data set with HiBit only, the “HiBit only %, percent luminescence at highest dose with HiBit only compared to control (DMSO)” value was found to be 104% and the “HiBit only % @100 μM” value was 104%. Moreover, in the data set with HMC3 cells [4], the “Ave. % Cell Count @ 60 uM HMC3 cells” value turned out to be 6% and the “Ave. % Phagocytosis @ 60 uM HMC3 cells” value is given as 0%. On PLCγ2-HiBit, the “PLCγ2-HiBit %, percent luminescence” value amounted to 78% and the “PLCy2-HiBit % @100” value is 78%.
Turning to `O=S(=O)(Nc1cccc(C(F)(F)F)c1)c1ccccc1` [Compound 4], in [5], the “Clint, intrinsic clearance” value came to 607.66 µL/min/mg. In data set [2], this compound yielded a Kinetic solubility greater than 100 µM. For the same compound, in the data set on MDCK, the “Papp, MDCK permeability” value is 79.7 ×10−^6 cm/s. Moreover, in the data set with BV2 cells, the “Ave. % Cell Count @ 60 uM BV2 cells” value turned out to be 95% and the “Ave. % Phagocytosis @ 60 uM BV2 cells” value stood at 106%. Besides, in the data set on HiBit only, the “HiBit only %, percent luminescence at highest dose with HiBit only compared to control (DMSO)” value is given as 82% and the “HiBit only % @100 μM” value amounted to 82%. In the data set with HMC3 cells [4], the “Ave. % Cell Count @ 60 uM HMC3 cells” value turned out to be 84% and the “Ave. % Phagocytosis @ 60 uM HMC3 cells” value amounted to 89%. Besides, at PLCγ2-HiBit, the “PLCγ2-HiBit %, percent luminescence” value stood at 65% and the “PLCy2-HiBit % @100” value came to 65%.

The values above are taken from patent US20250020635A1, “ASSAY METHODS AND USES THEREOF FOR SCREENING ALZHEIMER'S DISEASE TREATMENT COMPOUNDS” (priority 2023, published 2025).
